From patent publication US6737383B1, “Herbicidal oxadiazolidines” (priority 1999, dated 2004)

Legend:
cocklebur = experiment: Test B pre/postemergence cocklebur; assay type: in vivo, Xanthium strumarium
Outline: (§1)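 Response is a visual 0-to-10 score relative to untreated plants, where 0 means no effect and 10 means complete control, taken twelve to sixteen days after application. Treatments went onto soil at planting and onto foliage of 1- to 4-leaf plants, using a surfactant-containing non-phytotoxic solvent.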

soybean = experiment: Test B pre/postemergence soybean; assay type: in vivo, Glycine max
Outline: as §1

purple nutsedge = experiment: Test B pre/postemergence purple nutsedge; assay type: in vivo, Cyperus rotundus
Outline: as §1

velvetleaf = experiment: Test B pre/postemergence velvetleaf; assay type: in vivo, Abutilon theophrasti
Outline: as §1

pigweed = experiment: Test B pre/postemergence pigweed; assay type: in vivo, Amaranthus retroflexus
Outline: as §1

surinam grass = experiment: Test B pre/postemergence surinam grass; assay type: in vivo, Brachiaria decumbens
Outline: as §1

sugar beet = experiment: Test B pre/postemergence sugar beet; assay type: in vivo, Beta vulgaris
Outline: as §1

wild oat = experiment: Test B pre/postemergence wild oat; assay type: in vivo, Avena fatua
Outline: as §1

morningglory = experiment: Test B pre/postemergence morningglory; assay type: in vivo, Ipomoea hederacea
Outline: as §1

wheat = experiment: Test B pre/postemergence wheat; assay type: in vivo, Triticum aestivum
Outline: as §1

blackgrass = experiment: Test B pre/postemergence blackgrass; assay type: in vivo, Alopecurus myosuroides
Outline: as §1

rape = experiment: Test B pre/postemergence rape; assay type: in vivo, Brassica napus
Outline: as §1

crabgrass = experiment: Test B pre/postemergence crabgrass; assay type: in vivo, Digitaria sanguinalis
Outline: as §1

bedstraw = experiment: Test B pre/postemergence bedstraw; assay type: in vivo, Galium aparine
Outline: as §1

giant foxtail = experiment: Test B pre/postemergence giant foxtail; assay type: in vivo, Setaria faberii
Outline: as §1

corn = experiment: Test B pre/postemergence corn; assay type: in vivo, Zea mays
Outline: as §1

[1] = Postemergence, Rate 62 g/ha, scale 0 to 10, 0 is no effect, 10 is complete control
[2] = Postemergence, Rate 125 g/ha, scale of 0 to 10 where 0 is no effect and 10 is complete control
[3] = Preemergence, Rate 125 g/ha, scale of 0 to 10 where 0 is no effect and 10 is complete control
[4] = Preemergence, Rate 250 g/ha, scale 0 (no effect) to 10 (complete control)
[5] = Rate 62 g/ha, Preemergence, scale 0 to 10
[6] = Rate 250 g/ha, Postemergence, scale 0 to 10, 0 is no effect, 10 is complete control
[7] = Rate 500 g/ha, Postemergence, scale 0 to 10, 0 is no effect, 10 is complete control
[8] = Rate 500 g/ha, Preemergence, scale 0 to 10 (0 no effect, 10 complete control)

C#CC(CC)n1c(=O)on(C(=O)N(c2ccc(F)cc2)C(C)C)c1=O (stereo not shown) [Compound 753]
Plant response rating, Cocklebur (cocklebur; [1]): 0 | Cocklebur plant response rating (cocklebur; [2]): 0 | Plant response rating, Cocklebur (cocklebur; [3]): 0 | Cocklebur plant response rating (cocklebur; [4]): 0 | Cocklebur plant response rating (cocklebur; [5]): 0 | Cocklebur plant response rating (cocklebur; [6]): 0 | Cocklebur plant response rating (cocklebur; [7]): 4 | Cocklebur plant response rating (cocklebur; [8]): 2 | Plant response rating, Soybean (soybean; [1]): 1 | Plant response rating, Soybean (soybean; [3]): 0 | Soybean plant response rating (soybean; [4]): 0 | Soybean plant response rating (soybean; [5]): 0 | Soybean plant response rating (soybean; [6]): 4 | Soybean plant response rating (soybean; [7]): 4 | Soybean plant response rating (soybean; [8]): 0 | Plant response rating, Nutsedge (purple nutsedge; [1]): 0 | Nutsedge plant response rating (purple nutsedge; [2]): 0 | Plant response rating, Nutsedge (purple nutsedge; [3]): 0 | Nutsedge plant response rating (purple nutsedge; [4]): 0 | Nutsedge plant response rating (purple nutsedge; [5]): 0 | Nutsedge plant response rating (purple nutsedge; [6]): 2 | Nutsedge plant response rating (purple nutsedge; [7]): 3 | Nutsedge plant response rating (purple nutsedge; [8]): 0 | Plant response rating, Velvetleaf (velvetleaf; [1]): 0 | Plant response rating, Velvetleaf (velvetleaf; [3]): 0 | Velvetleaf plant response rating (velvetleaf; [5]): 0 | Velvetleaf plant response rating (velvetleaf; [6]): 2 | Velvetleaf plant response rating (velvetleaf; [7]): 2 | Velvetleaf plant response rating (velvetleaf; [8]): 2 | Plant response rating, Redroot pigweed (pigweed; [1]): 4 | Redroot pigweed plant response rating (pigweed; [2]): 5 | Plant response rating, Redroot pigweed (pigweed; [3]): 8 | Redroot pigweed plant response rating (pigweed; [4]): 9 | Redroot pigweed plant response rating (pigweed; [5]): 6 | Redroot pigweed plant response rating (pigweed; [6]): 6 | Redroot pigweed plant response rating (pigweed; [7]): 7 | Redroot pigweed plant response rating (pigweed; [8]): 10 | Plant response rating, B. signalgrass (surinam grass; [1]): 0 | B. signalgrass plant response rating (surinam grass; [2]): 0 | B. signalgrass plant response rating (surinam grass; Preemergence, Rate 62 g/ha, scale of 0 to 10 where 0 is no effect and 10 is complete control): 2 | Plant response rating, B. signalgrass (surinam grass; [3]): 7 | B. signalgrass plant response rating (surinam grass; [4]): 9 | B. signalgrass plant response rating (surinam grass; [6]): 2 | B. signalgrass plant response rating (surinam grass; [7]): 7 | B. signalgrass plant response rating (surinam grass; [8]): 9 | Plant response rating, Sugarbeets (sugar beet; [1]): 0 | Plant response rating, Sugarbeets (sugar beet; [3]): 0 | Sugarbeets plant response rating (sugar beet; [4]): 1 | Sugarbeets plant response rating (sugar beet; [5]): 0 | Sugarbeets plant response rating (sugar beet; [6]): 5 | Sugarbeets plant response rating (sugar beet; [7]): 5 | Sugarbeets plant response rating (sugar beet; [8]): 8 | Plant response rating, Wild oats (wild oat; [1]): 0 | Plant response rating, Wild oats (wild oat; [3]): 4 | Wild oats plant response rating (wild oat; [4]): 8 | Wild oats plant response rating (wild oat; [5]): 0 | Wild oats plant response rating (wild oat; [6]): 0 | Wild oats plant response rating (wild oat; [7]): 2 | Wild oats plant response rating (wild oat; [8]): 9 | Morningglory plant response rating (morningglory; [2]): 2 | Plant response rating, Morningglory (morningglory; [3]): 0 | Morningglory plant response rating (morningglory; [4]): 0 | Morningglory plant response rating (morningglory; [5]): 0 | Morningglory plant response rating (morningglory; [6]): 9 | Morningglory plant response rating (morningglory; [7]): 10 | Morningglory plant response rating (morningglory; [8]): 0 | Plant response rating, Wheat (wheat; [1]): 0 | Plant response rating, Wheat (wheat; [3]): 0 | Wheat plant response rating (wheat; [4]): 3 | Wheat plant response rating (wheat; [5]): 0 | Wheat plant response rating (wheat; [6]): 0 | Wheat plant response rating (wheat; [7]): 5 | Wheat plant response rating (wheat; [8]): 3 | Plant response rating, Blackgrass (blackgrass; [1]): 0 | Blackgrass plant response rating (blackgrass; [2]): 2 | Plant response rating, Blackgrass (blackgrass; [3]): 9 | Blackgrass plant response rating (blackgrass; [4]): 9 | Blackgrass plant response rating (blackgrass; [5]): 5 | Blackgrass plant response rating (blackgrass; [6]): 4 | Blackgrass plant response rating (blackgrass; [7]): 4 | Blackgrass plant response rating (blackgrass; [8]): 9 | Plant response rating, Rape (rape; [1]): 0 | Rape plant response rating (rape; [2]): 0 | Plant response rating, Rape (rape; [3]): 5 | Rape plant response rating (rape; [4]): 7 | Rape plant response rating (rape; [5]): 2 | Rape plant response rating (rape; [6]): 0 | Rape plant response rating (rape; [7]): 0 | Rape plant response rating (rape; [8]): 7 | Plant response rating, Crabgrass (crabgrass; [1]): 0 | Crabgrass plant response rating (crabgrass; [2]): 4 | Plant response rating, Crabgrass (crabgrass; [3]): 9 | Crabgrass plant response rating (crabgrass; [4]): 9 | Crabgrass plant response rating (crabgrass; [5]): 9 | Crabgrass plant response rating (crabgrass; [6]): 6 | Crabgrass plant response rating (crabgrass; [7]): 9 | Crabgrass plant response rating (crabgrass; [8]): 9 | Plant response rating, Bedstraw (bedstraw; [3]): 0 | Bedstraw plant response rating (bedstraw; [4]): 3 | Bedstraw plant response rating (bedstraw; [5]): 0 | Bedstraw plant response rating (bedstraw; [7]): 6 | Bedstraw plant response rating (bedstraw; [8]): 3 | Plant response rating, Giant foxtail (giant foxtail; [1]): 3 | Giant foxtail plant response rating (giant foxtail; [2]): 8 | Plant response rating, Giant foxtail (giant foxtail; [3]): 9 | Giant foxtail plant response rating (giant foxtail; [4]): 9 | Giant foxtail plant response rating (giant foxtail; [5]): 9 | Giant foxtail plant response rating (giant foxtail; [6]): 8 | Giant foxtail plant response rating (giant foxtail; [7]): 9 | Giant foxtail plant response rating (giant foxtail; [8]): 9 | Plant response rating, Corn (corn; [1]): 0 | Corn plant response rating (corn; [2]): 0 | Plant response rating, Corn (corn; [3]): 0 | Corn plant response rating (corn; [4]): 0 | Corn plant response rating (corn; [5]): 0 | Corn plant response rating (corn; [6]): 0 | Corn plant response rating (corn; [7]): 1 | Corn plant response rating (corn; [8]): 0
